The record followed here is US9156834B2, “Derivatives of heteroarylsulfonamides, their preparation and their application in human therapy” (PIERRE FABRE MEDICAMENT, priority 2010, dated 2015).

Broadly, the inhibition is the percentage by which the read-out fell short of the control.

Counter-ions that a name gives are not always drawn.

In the experiment the target is T1, human isoform of the Kv1.5 channels (Homo sapiens, UniProt P22460).
T1 construct: expressed in transfected cells; host or cells: HEK293
T1 sequence (P22460 whole entry, canonical isoform): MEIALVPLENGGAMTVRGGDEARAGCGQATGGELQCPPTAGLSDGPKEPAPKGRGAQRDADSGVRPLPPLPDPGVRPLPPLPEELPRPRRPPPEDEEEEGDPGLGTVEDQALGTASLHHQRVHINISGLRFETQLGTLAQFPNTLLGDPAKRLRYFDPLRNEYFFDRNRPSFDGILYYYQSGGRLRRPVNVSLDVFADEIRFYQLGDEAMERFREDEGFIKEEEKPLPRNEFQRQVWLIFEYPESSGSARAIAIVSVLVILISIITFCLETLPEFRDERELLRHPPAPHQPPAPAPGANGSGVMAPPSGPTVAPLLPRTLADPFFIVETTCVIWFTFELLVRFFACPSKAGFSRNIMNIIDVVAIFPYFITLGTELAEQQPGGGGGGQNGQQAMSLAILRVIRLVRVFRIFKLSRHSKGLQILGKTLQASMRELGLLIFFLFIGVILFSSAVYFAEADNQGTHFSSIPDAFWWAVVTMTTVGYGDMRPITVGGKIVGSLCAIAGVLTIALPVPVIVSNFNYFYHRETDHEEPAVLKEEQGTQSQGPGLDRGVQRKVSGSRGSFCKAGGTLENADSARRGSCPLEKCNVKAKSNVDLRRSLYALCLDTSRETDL
Kind of experiment: FLIPR thallium ion measurement on potassium channel Kv1.5. The class given is cell-based. The settings on record: HEK293 cells stably transfected with hKv1.5; compound 10 μM, 15 min at 37° C.; fluorescence normalised with 10 μM DPO. Here is the method:
The pharmacological evaluation of the compounds on potassium channel Kv1.5 was undertaken using a 96-well plate and FLIPR technology by thallium ion measurement. The HEK293 cells, transfected in a stable manner with the human isoform of the Kv1.5 channels, are seeded 24 h before the experiment in 96-well plates ([…], 200 μl/well) with polylysine applied in the following culture medium: DMEM, 10% SVF, Penicillin/Streptomycin, G418 as the selection antibiotic.
The FLIPR experiment is undertaken using “FLIPR Potassium Ion Channel Assay Kit”, as indicated by the manufacturer (Molecular Devices).
Briefly, the culture medium is replaced by the solution containing the thallium marker for 90 min at 37° C. On conclusion of this step the compounds for testing are added to a final concentration of 10 μM in the well for 15 min at 37° C. The basic fluorescence is then read for 60 sec. The addition of depolarising medium (20 mM of potassium and 3 mM of final thallium) opens the potassium channels and causes an increase of the fluorescence of the thallium fluorophore corresponding to an influx of thallium ions through the hKv1.5 channels. The measurement is made 30 sec after the injection of the depolarising solution. The application of 10 μM DPO (Tocris, blocker of the Kv1.5 channels) enables the fluorescence to be normalised.
`O=C(c1ccccc1NS(=O)(=O)c1ccc(C(F)(F)F)cn1)N1CCN(c2nc3ccc(F)cc3o2)CC1` [Example 1, N-(2-(4-(6-fluorobenzo[d]oxazol-2-yl)piperazine-1-carbonyl)phenyl)-5-(trifluoromethyl)pyridine-2-sulfonamide] came in with an inhibition at 10 µM of 61.4%.

For the molecule `O=C(c1ccccc1NS(=O)(=O)c1ccccn1)N1CCN(c2nc3ccc(F)cc3s2)CC1` [Example 2, N-(2-(4-(6-fluorobenzo[d]thiazol-2-yl)piperazine-1-carbonyl)phenyl)-pyridine-2-sulfonamide], at 10 µM the inhibition was 100%.

For `O=C(c1ccccc1NS(=O)(=O)c1ccccn1)N1CCN(c2nc3ccc(Cl)cc3s2)CC1` [Example 4, N-(2-(4-(6-chlorobenzo[d]thiazol-2-yl)piperazine-1-carbonyl)phenyl)pyridine-2-sulfonamide hydrochloride], the inhibition at 10 µM was found to be 100%.

Consider `Cc1cccc2sc(N3CCN(C(=O)c4ccccc4NS(=O)(=O)c4ccccn4)CC3)nc12` [Example 5, N-(2-(4-(4-methylbenzo[d]thiazol-2-yl)piperazine-1-carbonyl)phenyl)-pyridine-2-sulfonamide], for which the inhibition at 10 µM came to 90%.

In the case of `O=C(c1ccccc1NS(=O)(=O)c1ccccn1)N1CCN(c2nc3cccc(Cl)c3s2)CC1` [Example 6, N-(2-(4-(7-chlorobenzo[d]thiazol-2-yl)piperazine-1-carbonyl)phenyl)-pyridine-2-sulfonamide], 10 µM produced 91.8% inhibition.

In turn, `O=C(c1ccccc1NS(=O)(=O)c1ccccn1)N1CCN(c2nc3cc(C(F)(F)F)ccc3s2)CC1` [Example 7, N-(2-(4-(5-(trifluoromethyl)benzo[d]thiazol-2-yl)piperazine-1-carbonyl)phenyl)pyridine-2-sulfonamide] displayed an inhibition at 10 µM of 94.9%.

For the molecule `O=C(c1ccccc1NS(=O)(=O)c1ccc(C(F)(F)F)cn1)N1CCN(c2nc3ccc(Cl)cc3s2)CC1` [Example 8, N-(2-(4-(6-chlorobenzo[d]thiazol-2-yl)piperazine-1-carbonyl)phenyl)-5-(trifluoromethyl)pyridine-2-sulfonamide], 10 µM produced 94.7% inhibition.

Regarding `Cc1cccc(S(=O)(=O)Nc2ccccc2C(=O)N2CCN(c3nc4ccc(Br)cc4s3)CC2)n1` [Example 9, N-(2-(4-(6-bromobenzo[d]thiazol-2-yl)piperazine-1-carbonyl)phenyl)-6-methylpyridine-2-sulfonamide dihydrochloride], the inhibition at 10 µM was 62.8%.

As for `O=C(c1cccc(NS(=O)(=O)c2ccccn2)c1)N1CCN(c2nc3ccc(Cl)cc3o2)CC1` [Example 10, N-(3-(4-(6-chlorobenzo[d]oxazol-2-yl)piperazine-1-carbonyl)-phenyl)pyridine-2-sulfonamide], the inhibition at 10 µM worked out at 58.9%.

Regarding `O=C(c1cccc(NS(=O)(=O)c2ccccn2)c1)N1CCN(c2nc3ccc(Cl)cc3s2)CC1` [Example 11, N-(3-(4-(6-chlorobenzo[d]thiazol-2-yl)piperazine-1-carbonyl)phenyl)-pyridine-2-sulfonamide], at 10 µM the inhibition was 75.1%.

With `Cc1cccc(S(=O)(=O)Nc2cccc(C(=O)N3CCN(c4nc5ccc(Cl)cc5s4)CC3)c2)n1` [Example 12, N-(3-(4-(6-chlorobenzo[d]thiazol-2-yl)piperazine-1-carbonyl)-phenyl)-6-methylpyridine-2-sulfonamide], 10 µM produced 52.6% inhibition.

The molecule `O=C(c1ccc(NS(=O)(=O)c2ccccn2)cc1)N1CCN(c2nc3ccc(F)cc3o2)CC1` [Example 13, N-(4-(4-(6-fluorobenzo[d]oxazol-2-yl)piperazine-1-carbonyl)phenyl)pyridine-2-sulfonamide] displayed an inhibition at 10 µM of 100%.

`O=C(c1ccc(NS(=O)(=O)c2ccccn2)cc1)N1CCN(c2nc3ccc(Cl)cc3o2)CC1` [Example 14, N-(4-(4-(6-chlorobenzo[d]oxazol-2-yl)piperazine-1-carbonyl)phenyl)pyridine-2-sulfonamide] showed an inhibition at 10 µM of 68.7%.

As for `O=C(c1ccc(NS(=O)(=O)c2ccccn2)cc1)N1CCN(c2nc3ccc(Cl)cc3s2)CC1` [Example 15, N-(4-(4-(6-chlorobenzo[d]thiazol-2-yl)piperazine-1-carbonyl)-phenyl)pyridine-2-sulfonamide], the inhibition at 10 µM stood at 70.2%.

Molecule `O=C(c1ccccc1NS(=O)(=O)c1cccc2cccnc12)N1CCN(c2nc3ccc(Br)cc3s2)CC1` [Example 16, N-(2-(4-(6-bromobenzo[d]thiazol-2-yl)piperazine-1-carbonyl)phenyl)-quinoline-8-sulfonamide] registered an inhibition at 10 µM of 68%.

The molecule `O=C(c1ccccc1NS(=O)(=O)c1cccc2cccnc12)N1CCN(c2nc3ccc(Cl)cc3o2)CC1` [Example 17, N-(2-(4-(6-chlorobenzo[d]oxazol-2-yl)piperazine-1-carbonyl)-phenyl)quinoline-8-sulfonamide] had an inhibition at 10 µM of 70.8%.

In the case of `O=C(c1ccccc1NS(=O)(=O)c1cccc2cccnc12)N1CCN(c2nc3ccc(Cl)cc3s2)CC1` [Example 18, N-(2-(4-(6-chlorobenzo[d]thiazol-2-yl)piperazine-1-carbonyl)-phenyl)quinoline-8-sulfonamide], 10 µM produced 91.5% inhibition.

Take `O=C(c1ccccc1NS(=O)(=O)c1cccc2cccnc12)N1CCN(c2nc3ccc(OC(F)(F)F)cc3s2)CC1` [Example 19, N-(2-(4-(6-(trifluoromethoxy)benzo[d]thiazol-2-yl)piperazine-1-carbonyl)phenyl)quinoline-8-sulfonamide]: testing at 10 µM gave an inhibition of 50.2%.

Regarding `Cc1cccc2sc(N3CCCN(C(=O)c4ccccc4NS(=O)(=O)c4cccc5cccnc45)CC3)nc12` [Example 20, N-(2-(4-(4-methylbenzo[d]thiazol-2-yl)-1,4-diazepane-1-carbonyl)-phenyl)quinoline-8-sulfonamide], the inhibition at 10 µM is 82.8%.

`Cc1ccc2nc(N3CCC(Oc4ccccc4NS(=O)(=O)c4ccccn4)CC3)oc2c1` [Example 21, N-(2-(1-(6-methylbenzo[d]oxazol-2-yl)piperidin-4-yloxy)phenyl)pyridine-2-sulfonamide] gave an inhibition at 10 µM of 54.6%.

Molecule `O=S(=O)(Nc1ccccc1OC1CCN(c2nc3ccc(Cl)cc3o2)CC1)c1ccccn1` [Example 22, N-(2-(1-(6-chlorobenzo[d]oxazol-2-yl)piperidin-4-yloxy)phenyl)-pyridine-2-sulfonamide] came in with an inhibition at 10 µM of 58.8%.

In turn, `CC(C)(C)c1ccc2oc(N3CCC(Oc4ccccc4NS(=O)(=O)c4ccccn4)CC3)nc2c1` [Example 23, N-(2-(1-(5-tert-butylbenzo[d]oxazol-2-yl)piperidin-4-yloxy)phenyl)pyridine-2-sulfonamide] came in with an inhibition at 10 µM of 51.8%.

Consider `O=S(=O)(Nc1ccccc1OC1CCN(c2nc3cc(Cl)ccc3o2)CC1)c1ccccn1` [Example 24, N-(2-(1-(5-chlorobenzo[d]oxazol-2-yl)piperidin-4-yloxy)phenyl)-pyridine-2-sulfonamide], for which the inhibition at 10 µM came to 81%.

As to `O=S(=O)(Nc1ccccc1OC1CCN(c2nc3ccccc3s2)CC1)c1ccccn1` [Example 25, N-(2-(1-(benzo[d]thiazol-2-yl)piperidin-4-yloxy)phenyl)pyridine-2-sulfonamide], the inhibition at 10 µM was 90.2%.

With `O=S(=O)(Nc1ccccc1OC1CCN(c2nc3ccc(Cl)cc3s2)CC1)c1ccccn1` [Example 26], the inhibition at 10 µM came to 65.8%.
